This is an account of results in ChEMBL document CHEMBL1926625, “Identification of benzoxazin-3-one derivatives as novel, potent, and selective nonsteroidal mineralocorticoid receptor antagonists” (J Med Chem, 2011).

pIC50: −log10 of the molar value.

The target in one data set is T1, Androgen receptor (Homo sapiens, UniProt P10275).
T1 sequence (P10275 whole entry): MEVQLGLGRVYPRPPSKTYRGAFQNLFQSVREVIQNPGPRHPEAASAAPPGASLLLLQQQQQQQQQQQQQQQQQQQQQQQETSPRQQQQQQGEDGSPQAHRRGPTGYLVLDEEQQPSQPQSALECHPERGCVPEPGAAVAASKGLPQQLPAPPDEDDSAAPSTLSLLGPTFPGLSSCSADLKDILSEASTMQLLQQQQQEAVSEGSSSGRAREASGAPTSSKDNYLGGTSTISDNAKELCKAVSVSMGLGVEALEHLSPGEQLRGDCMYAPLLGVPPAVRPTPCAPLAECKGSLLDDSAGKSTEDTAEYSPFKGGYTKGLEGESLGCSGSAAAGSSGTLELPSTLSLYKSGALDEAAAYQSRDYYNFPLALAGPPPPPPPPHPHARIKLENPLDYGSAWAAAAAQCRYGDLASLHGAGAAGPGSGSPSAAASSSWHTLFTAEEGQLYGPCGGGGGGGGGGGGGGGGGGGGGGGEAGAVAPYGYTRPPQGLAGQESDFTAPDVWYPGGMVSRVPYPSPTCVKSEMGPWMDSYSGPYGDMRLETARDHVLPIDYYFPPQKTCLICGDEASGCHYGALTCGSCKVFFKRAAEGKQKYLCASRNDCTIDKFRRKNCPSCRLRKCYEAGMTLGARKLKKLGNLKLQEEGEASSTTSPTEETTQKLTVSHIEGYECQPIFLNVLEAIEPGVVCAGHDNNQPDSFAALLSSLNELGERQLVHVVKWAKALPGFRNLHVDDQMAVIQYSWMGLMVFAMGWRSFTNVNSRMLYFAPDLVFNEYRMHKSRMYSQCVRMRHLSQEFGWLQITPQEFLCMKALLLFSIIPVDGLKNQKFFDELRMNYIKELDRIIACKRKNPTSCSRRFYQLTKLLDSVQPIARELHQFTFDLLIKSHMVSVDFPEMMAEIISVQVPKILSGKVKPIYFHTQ
In words: Displacement of [3H]testosterone from AR.

Data set [1] can be described thus: Volume of distribution at steady state in Sprague-Dawley rat at 3 mg/kg, iv and 10 mg/kg, po. The format is ADME, organism-based. Particulars: in vivo, read-out: Vdss.

For orientation: pIC50 means the negative decadic logarithm of the IC50, by convention in mol/L. Low readings indicate a high IC50, high ones a low IC50. As to `Cc1cc(F)ccc1-n1nc(C(F)(F)F)cc1-c1ccc2c(c1)NC(=O)CO2`, the pIC50 on Androgen receptor is below 5.00. The Vd in data set [1] is 4.63 L/kg.
